According to US11510965B2, “Vesicles comprising epidermal growth factor and compositions thereof” (Centro de Ingeniería Genética y Biotecnología, priority 2012, dated 2022):

How the values were obtained:
[1] = system: Candida albicans; test: Agar diffusion method, fungicidal activity; format: cell-based; conditions: 28° C., 72 hours; controls 100 μg/ml
Experimental: (§1) This activity was determined using the agar diffusion method (Manual of Clinical Microbiology. 6th ed. Washington, DC: ASM; 1995). The effectiveness of the different suspensions was assayed against Gram positive bacteria (Bacillus subtilis, Staphylococcus aureus), Gram negative bacteria (E. coli, Proteus mirabilis), and against fungi (Candida albicans, Aspergillus niger) using the technique of wells in nutrient agar plates. These microorganisms were identified and provided by the microorganism collection BCCM/LMG (Belgium). Bacteria were grown overnight at 37° C. in Tryptone Soy Broth (Oxoid), and fungi were incubated for 72 hours at 28° C. in Sabouraud Dextrose Broth (Oxoid). These suspensions were used as inocula. A final inoculum, using 100 μl of a suspension containing 10^8 colony forming units/ml of bacteria, or 10^4 spores/ml of fungus, was spread on Tryptone Soy Agar and Sabouraud Dextrose Agar (Oxoid) plates, respectively. The disk (6 mm in diameter) was impregnated with each of the different vesicle suspensions to be tested. […] Assay plates were incubated at 37° C. for 24 hours for bacteria, and 28° C. during 72 hours for fungi, depending on the incubation time required for visible growth.

[2] = system: Aspergillus niger; test: Agar diffusion method, fungicidal activity; format: cell-based; conditions: 28° C., 72 hours; controls 100 μg/ml
Experimental: as §1

[3] = cholesterol:CTAB vesicles, DELOS-SUSP; cited from earlier work

| Molecule | Fungicidal activity (Inhibition zone) C. albicans [1] [mm] | Fungicidal activity (Inhibition zone) A. niger [2] [mm] | gentamicin encapsulation [3] [%] |
| --- | --- | --- | --- |
| OC(Cn1cncn1)(Cn1cncn1)c1ccc(F)cc1F [Fluconazole, fluconazole] | 22 | 21 | – |
| gentamicin | – | – | < 2 |
